How the values were obtained:
p21^Waf1/Cip1 in BxPC-3 = experiment: p21Waf1/Cip1 expression; format: cell-based, human
From the text: SN-38 is known to activate several signaling pathways in cells, leading to apoptosis (e.g., Cusack et al., 2001, Cancer Res 61:3535-40; Liu et al. 2009, Cancer Lett 274:47-53; Lagadec et al., 2008, Br J Cancer 98:335-44). Our initial studies examined the expression of 2 proteins involved in early signaling events (p21^Waf1/Cip1 and p53) and 1 late apoptotic event [cleavage of poly-ADP-ribose polymerase (PARP)] in vitro (not shown).

p53 in BxPC-3 and Calu-3 = experiment: p53 expression; format: cell-based, human
Protocol: In addition, p53 expression in cells exposed to the ADC was higher in both cell lines compared to SN-38 (not shown). […] In terms of later apoptotic events, cleavage of PARP was evident in both cell lines when incubated with either SN-38 or the conjugate (not shown). […] The higher degree of cleavage with free SN-38 over the ADC was consistent with the cytotoxicity findings.

[1] = test system: p21^WAF1/Cip1 in MDA-MB-468; experiment: immunoblotting of apoptotic pathway; format: cell-based, human; conditions: by 48 h
Protocol: Cells (2×10^6) were plated in 6-well plates overnight. […] Parental hRS7 was used as a control for the ADC.

MDA-MB-231-S120 = experiment: in vitro cytotoxicity, MTS (Table 14); format: cell-based, human; conditions: for RF (resistance factor): IC50 mean of MDA-MB-231-S120 / MDA-MB-231; for IC50: MDA-MB-231-S120, YHO-13351 2 μM where added
Protocol: (§1) Each cell line was maintained according to the recommendations of ATCC and routinely tested for mycoplasma using MYCOALERT™ mycoplasma detection kits (Lonza). The two SN-38-resistant cell lines, MDA-MB-231-5120 and NCI-N87-S120, were established by continuous exposure of the parental cells to stepwise increased concentrations of SN-38 from 6 pM to 120 nM over a period of approximately 2 years. In addition, a revertant cell line (NCI-N87-S120-REV) was obtained after culturing NCI-N87-S120 in SN-38-free medium for 4 months. The S-120 clones were maintained in medium containing 120 nM of SN-38, but cultured in drug-free medium for 7 to 14 days prior to any experiment. All cells were grown at 37° C. as monolayer cultures in a humidified atmosphere of 5% CO2.
(§2) In Vitro cytotoxicity. […] Briefly, cells were placed into wells of 96-well plates. […] From these working solutions, serial 5-fold dilutions were made in sterile media to yield final concentrations between 500 and 0.0064 nM in test wells. […] Cytotoxicity was measured as a percent of growth relative to untreated cells. Dose-response curves were generated from the mean of triplicate determinations, and IC50 values were calculated using GraphPad Prism Software V 6.05 (Advanced Graphics Software).
(§3) The effect of ABCG2 inhibitors on the IC50 values of SN-38 for the parental and resistant cell lines was determined from the respective dose-response curves obtained for SN-38 in the presence of a non-toxic concentration of ABCG2 inhibitors.

MDA-MB-231 [2] = experiment: in vitro cytotoxicity, MTS (Table 14); format: cell-based, human; conditions: YHO-13351 2 μM where added
Protocol: as §1, §2, §3

NCI-N87-S120 = experiment: in vitro cytotoxicity, MTS (Table 14); format: cell-based, human; conditions: for RF (resistance factor): IC50 mean of NCI-N87-S120 / NCI-N87; for IC50: NCI-N87-S120, YHO-13351 2 μM, Ko143 1 μM where added
Protocol: as §1, §2, §3

NCI-N87-S120-REV = experiment: in vitro cytotoxicity, MTS; format: cell-based, human; conditions: revertant after 4 months in SN-38-free medium
Protocol: as §1, §2

MDA-MB-231 [3] = experiment: double-strand breaks, γH2AX; format: cell-based, human; conditions: 250 nM, after 3 h
Protocol: (§4) Cells (5×10^5 cells/mL per sample) were incubated with or without SN-38 (250 nM) at 37° C. for the indicated times, fixed in 4% formalin for 15 min, then washed and permeabilized in 0.15% TRITON™ X-100 in PBS for 15 min. After washing twice with 1% bovine serum albumin-PBS, the cells were incubated with murine anti-γH2AX-AF488 for 45 min at 4° C. The signal intensity of γH2AX was measured by flow cytometry using a FACSCALIBUR™ (BD Biosciences).

NCI-N87 [4] = experiment: double-strand breaks, γH2AX; format: cell-based, human; conditions: 250 nM, after 3 h
Protocol: as §4

NCI-N87 [5] = experiment: in vitro cytotoxicity, MTS (Table 14); format: cell-based; conditions: Homo sapiens, YHO-13351 2 μM, Ko143 1 μM where added
Protocol: as §1
In Vitro cytotoxicity. […] Briefly, cells were placed into wells of 96-well plates. […] Cytotoxicity was measured as a percent of growth relative to untreated cells. Dose-response curves were generated from the mean of triplicate determinations, and IC50 values were calculated using GraphPad Prism Software V 6.05 (Advanced Graphics Software).
as §3

sublines of PC-6 = conditions: Kawabata et al., 2001; cited from earlier work
sublines of HeLa = conditions: Takara et al., 2009; cited from earlier work
subline of H23 = conditions: Bessho et al., 2006; cited from earlier work
[6] = Weidner et al., 2015; cited from earlier work

CCc1c2c(nc3ccc(O)cc13)-c1cc3c(c(=O)n1C2)COC(=O)[C@]3(O)CC [SN-38, 7-ethyl-10-hydroxycamptothecin]
increase in p21^Waf1/Cip1 expression (p21^Waf1/Cip1 in BxPC-3): 20 fold
time to upregulation of p53 (p53 in BxPC-3 and Calu-3): 48 h
decrease of p21^WAF1/Cip1 [1]: 31%
RF (resistance factor) (MDA-MB-231-S120): 51.7
IC50 (MDA-MB-231-S120): 248 ± 79 nM
IC50 (MDA-MB-231 [2]): 4.8 ± 1.7 nM
RF (resistance factor) (NCI-N87-S120): 49.1
IC50 (NCI-N87-S120): 211 ± 39 nM
resistance of S-120 cells vs parental cells (NCI-N87-S120; both S-120 cells): about 50 fold
IC50 (NCI-N87-S120-REV): 50 nM
increase of γH2AX over untreated controls (MDA-MB-231 [3]): about 2 fold
increase of γH2AX over untreated controls (NCI-N87 [4]): about 4 fold

COc1cccc2c1C(=O)c1c(O)c3c(c(O)c1C2=O)C[C@@](O)(C(=O)CO)C[C@@H]3O[C@H]1C[C@H](N)[C@H](O)[C@H](C)O1 [Doxorubicin]
IC50 (NCI-N87 [5]): 32.2 ± 7.5 nM
IC50 (MDA-MB-231-S120; Homo sapiens): 43.1 ± 4.6 nM
RF (resistance factor) (MDA-MB-231-S120): 4.0
IC50 (MDA-MB-231 [2]; Homo sapiens): 10.9 ± 0.6 nM
IC50 (NCI-N87-S120; Homo sapiens): 74.6 ± 3.3 nM
RF (resistance factor) (NCI-N87-S120): 2.3
resistance ratio (sublines of PC-6): less than 1.3
resistance ratio (sublines of HeLa): 2.5
resistance ratio (subline of H23): about 7.0

COc1ccc2c3c([nH]c2c1)[C@H](CC(C)C)N1C(=O)[C@H](CCC(=O)OC(C)(C)C)NC(=O)[C@@H]1C3 [Ko143]
effect on SN-38 toxicity in S-120 cells (NCI-N87-S120; both S-120 cells, in vitro): restored toxicity of SN-38
stability in rat serum [6]: instability
